This is an account of results in ChEMBL document CHEMBL3352745, “Serotonin 5-HT6 receptor antagonists for the treatment of cognitive deficiency in Alzheimer's disease” (J Med Chem, 2014).

Structures are written as SMILES.

T1 sequence (P50406 whole entry): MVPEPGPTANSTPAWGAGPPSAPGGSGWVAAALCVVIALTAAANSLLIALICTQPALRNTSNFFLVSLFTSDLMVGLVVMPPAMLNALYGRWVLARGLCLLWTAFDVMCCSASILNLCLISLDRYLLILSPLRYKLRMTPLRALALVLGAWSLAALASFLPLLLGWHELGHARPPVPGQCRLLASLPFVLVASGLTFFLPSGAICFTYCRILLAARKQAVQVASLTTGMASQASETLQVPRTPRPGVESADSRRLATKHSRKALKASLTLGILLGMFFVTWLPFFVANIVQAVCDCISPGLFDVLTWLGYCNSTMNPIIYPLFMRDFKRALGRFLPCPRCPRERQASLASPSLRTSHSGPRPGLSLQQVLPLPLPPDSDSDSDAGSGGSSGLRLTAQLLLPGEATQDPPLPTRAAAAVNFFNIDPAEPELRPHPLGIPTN

System in one series: not listed separately
Kind of series: Half life in rat. The series is classed as ADME, organism-based. Particulars: in vivo.
In the case of `COc1ccc(NS(=O)(=O)c2sc3ccc(Cl)cc3c2C)cc1N1CCNCC1`, the half-life (as a rule, the time needed for the level to fall by half in the phase considered) was 4.8 h.

The next series addresses T1, 5-hydroxytryptamine receptor 6 (Homo sapiens, UniProt P50406). Kind of series: Antagonist activity at human recombinant 5HT6 receptor expressed in CHO cells. The series is classed as cell-based.
Conditions: not given
`CN1CCC(c2cn(C)c3cc(OS(=O)(=O)c4c(F)cccc4F)ccc23)CC1`: the inhibition constant Ki (as a rule, a dissociation constant, usually derived from enzyme kinetics or from competition with a known ligand) turned out to be 1 nM. In the case of `O=C(c1ccccc1)n1cc(C2=CCNCC2)c2cc(F)ccc21`, the Ki came to 99 nM. Turning to `O=S(=O)(c1ccccc1)c1ccc2c(c1)OCCC2N1CCNCC1` (stereo unspecified), the inhibition constant (Ki) came to 0.4 nM. On the same count and under the same terms, the same measure for `Cc1c(S(=O)(=O)Nc2cc3c(c(N4CCN(C)CC4)c2)OCC3)sc2ccc(Cl)cc12`: 1.6 nM.

`O=S(=O)(c1ccccc1)c1ccc(C2CCNCC2)c2ccccc12`: the inhibitory constant (Ki) was determined as 3.8 nM. `N=C(N)CCC1CCCc2cc(S(=O)(=O)c3ccccc3)ccc21` (stereo unspecified): the Ki is 59 nM. On the same count and under the same terms, then `CNC[C@@H]1COc2ccc(S(=O)(=O)c3ccccc3)cc2O1`, with 0.2 nM; and `CN1CCN(c2cccc3c(S(=O)(=O)c4ccccc4)c[nH]c23)CC1`, with 0.5 nM; and `CSc1nn2c(N3CCNCC3)nc(C)nc2c1S(=O)(=O)c1ccccc1`, with 1.2 nM.

Take `O=C1COc2c(N3CCNCC3)cccc2N1Cc1ccccc1`: the inhibitory constant (Ki) was determined as 0.2 nM. With `CN1CC=C(c2cn(S(=O)(=O)c3cccc4ccccc34)c3ccc(F)cc23)CC1`, the inhibition constant Ki was found to be 1 nM. Regarding `COc1ccc(C)cc1S(=O)(=O)Nc1cc(OC2CCNCC2)c2occc2c1`, the inhibitory constant (Ki) was determined as 1.2 nM. Still for that read-out and setting: the same measure for `COc1ccc(NS(=O)(=O)c2ccc(I)cc2)cc1N1CCNCC1`: 2.3 nM. Regarding `CN1CCCC1Cc1c[nH]c2ccc(OC3CCCCC3)cc12` (stereo unspecified), the inhibitory constant (Ki) was 0.93 nM.

For `O=c1n(C2=CCNCC2)c2ccccc2n1S(=O)(=O)c1ccc2ccccc2c1`, the Ki was determined as 5.7 nM. In the case of `O=S(=O)(Nc1ccc2c(c1)CNCCC2)c1csc(C(F)(F)F)c1-c1ccccc1`, the inhibition constant (Ki) came to 32 nM. In the case of `COc1ccc(Cl)cc1NS(=O)(=O)c1ccc(OC)c2c1CC[C@H](N(C)C)C2`, the Ki is 1.7 nM. Turning to `O=c1[nH]c2c(N3CCNCC3)cccc2n1Cc1ccccc1`, the Ki amounted to 0.3 nM. In the case of `Fc1ccc2c(c1)c(C1=CCNCC1)cn2Cc1ccccc1`, the Ki was determined as 10 nM. With `O=S(=O)(c1cccc(Cl)c1Cl)N1CCc2c(cccc2N2CCNCC2)C1`, the Ki was found to be 0.04 nM. For the compound `CN1CC2c3ccccc3Oc3ccc(Cl)cc3C2C1` (stereo unspecified) [ASENAPINE], the inhibition constant Ki is 0.25 nM.

For `O=S(=O)(c1cccc(F)c1)c1c[nH]c2c(OCCN3CCCC3)cccc12`, the inhibition constant (Ki) turned out to be 20 nM.

Take `COc1cc(Cn2c(=O)ccc3cccc(OC)c32)cc(N2CCNCC2)c1`: the inhibition constant Ki turned out to be 0.9 nM. On to `Cc1cc(C)cc(S(=O)(=O)c2ccc3ccnc(N4CCNCC4)c3c2)c1`, for which the Ki came to 11 nM. Same read-out and setting: then `O=C(Nc1ccccc1)n1cc(C2=CCNCC2)c2cc(F)ccc21`, with 118 nM; and `COc1cc(N2CCNCC2)c2ncc(C)c(Oc3ccccc3)c2c1`, with 1 nM.

Consider `Clc1ccc(-c2[nH]c3ccccc3c2/C=N/NC2=NCCN2)cc1`, for which the Ki is 10 nM. Take `O=S(=O)(c1cccc(Cl)c1)n1ccc2c(N3CCNCC3)c(Cl)ccc21`: the Ki was 0.3 nM. For the compound `CC(Nc1ccc2c(c1)CCNCC2)c1ccccc1Cl` (stereo unspecified), the Ki is 14 nM. As for `O=C1c2cccc(N3CCNCC3)c2Oc2ccc(F)cc2N1Cc1cccc(C(F)(F)F)c1`, the Ki came out at 0.3 nM.

System in the next series: not listed separately
Kind of series: Oral bioavailability in rat. The series is classed as ADME, organism-based. Particulars: in vivo.
In the case of `COc1ccc(NS(=O)(=O)c2sc3ccc(Cl)cc3c2C)cc1N1CCNCC1`, the bioavailability (as a rule, the share of a dose that reaches the circulation, judged against a reference dose that is usually intravenous) is over 80%.

For the compound `CN1CC=C(c2cn(S(=O)(=O)c3cccc4ccccc34)c3ccc(F)cc23)CC1`, the bioavailability turned out to be 19%. As to `CN1CCC[C@@H]1Cc1cn(S(=O)(=O)c2ccccc2)c2ccc(Cl)cc12`, the bioavailability was 17%. `O=S(=O)(c1ccccc1)c1cnc2c(N3CCNCC3)cccc2c1` [INTEPIRDINE] gave a bioavailability of 76%.

The target of the next series is T1, 5-hydroxytryptamine receptor 6. Kind of series: Inhibition of human recombinant 5HT6 receptor expressed in CHO cells. The series is classed as cell-based.
Conditions: not given
On to `Nc1ccc(S(=O)(=O)c2cc(Br)nc(N3CCCC3)c2)cc1`, for which the IC50 (as a rule, the concentration needed to halve the response being measured) turned out to be 3.2 nM. Turning to `CN1CC=C(c2cn(S(=O)(=O)c3cccc4ccccc34)c3ccc(F)cc23)CC1`, the half-inhibitory concentration (IC50) was determined as 24 nM.

Regarding `COc1ccc(NS(=O)(=O)c2ccc(Br)cc2)cc1N1CCN(C)CC1`, the IC50 was determined as 16 nM. As for `CN1CCC[C@@H]1Cc1cn(S(=O)(=O)c2ccccc2)c2ccc(Cl)cc12`, the IC50 was 8.5 nM.

System in a further series: not listed separately
Kind of series: Ratio of drug level in brain to plasma in rat. It is filed as ADME. Particulars: brain and plasma, read-out: BPR.
In the case of `CN1CC=C(c2cn(S(=O)(=O)c3cccc4ccccc34)c3ccc(F)cc23)CC1`, the Kp was found to be 43. The same measure, in the same setting: the same measure for `CN1CCC[C@@H]1Cc1cn(S(=O)(=O)c2ccccc2)c2ccc(Cl)cc12`: 23.
